Source: US20100267561A1, “HERBICIDAL PYRIDAZINONE DERIVATIVES” (priority 2007, published 2010)

Columns and labels:
Type in all cases: in vivo
[1] = test system: large crabgrass (Digitaria sanguinalis); experiment: Test B pre-/postemergence plant response; conditions: for Crabgrass, Large plant response rating: 8 g ai/ha
How it was run: (§1)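 Visual scoring from 0 (no effect) to 100 (complete control) against untreated controls was done 13 to 15 days after greenhouse treatment. Chemicals were formulated in a surfactant-containing non-phytotoxic solvent and applied to soil preemergence or to 1- to 4-leaf (2-18 cm) plants postemergence.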

[2] = test system: Russian thistle (Salsola iberica); experiment: Test B pre-/postemergence plant response; conditions: Preemergence
How it was run: as §1

[3] = test system: cocklebur (Xanthium strumarium); experiment: Test B pre-/postemergence plant response; conditions: for Cocklebur plant response rating: 8 g ai/ha
How it was run: as §1

[4] = test system: spring wheat (Triticum aestivum); experiment: Test C pre-/postemergence plant response; conditions: Preemergence
Source text: (§2) Seeds of plant species selected from annual bluegrass (Poa annua), blackgrass (Alopecurus myosuroides), canola (Brassica rapa), downy bromegrass (Bromus tectorum), green foxtail (Setaria viridis), Italian ryegrass (Lolium multiflorum), canarygrass (Phalaris minor), pigweed (Amaranthus retroflexus), spring barley (Hordeum vulgare), spring wheat (Triticum aestivum), wild mustard (Sinapis arvensis), wild oat (Avena fatua), windgrass (Apera spica-venti), winter barley (Hordeum vulgare), and winter wheat (Triticum aestivum) were planted and treated preemergence with test chemicals formulated in a non-phytotoxic solvent mixture which included a surfactant. At the same time, plants selected from these crop and weed species were treated with postemergence applications of some of the test chemicals formulated in the same manner. Plants ranged in height from 2 to 18 cm (1- to 4-leaf stage) for postemergence treatments.
(§3) Treated plants and controls were maintained in a controlled growth environment for 15 to 25 days after which time all species were compared to controls and visually evaluated. Plant response ratings, summarized in Table C, are based on a scale of 0 to 100 where 0 is no effect and 100 is complete control. A dash (-) response means no test result.

[5] = test system: wild mustard (Sinapis arvensis); experiment: Test C pre-/postemergence plant response; conditions: Preemergence, scale 0 to 100 (0 no effect, 100 complete control)
Source text: as §2, §3

[6] = test system: spring barley (Hordeum vulgare); experiment: Test C pre-/postemergence plant response; conditions: Preemergence
Source text: as §2, §3

[7] = test system: green foxtail (Setaria viridis); experiment: Test C pre-/postemergence plant response; conditions: Preemergence
Source text: as §2, §3

[8] = test system: blackgrass (Alopecurus myosuroides); experiment: Test C pre-/postemergence plant response; conditions: Preemergence
Source text: as §2, §3

[9] = test system: winter barley (Hordeum vulgare); experiment: Test C pre-/postemergence plant response; conditions: Preemergence
Source text: as §2, §3

[10] = test system: downy bromegrass (Bromus tectorum); experiment: Test C pre-/postemergence plant response; conditions: Preemergence
Source text: as §2, §3

[11] = test system: pigweed (Amaranthus retroflexus); experiment: Test C pre-/postemergence plant response; conditions: Preemergence
Source text: as §2, §3

[12] = test system: Italian ryegrass (Lolium multiflorum); experiment: Test C pre-/postemergence plant response; conditions: Preemergence
Source text: as §2, §3

[13] = test system: winter wheat (Triticum aestivum); experiment: Test C pre-/postemergence plant response; conditions: Preemergence
Source text: as §2, §3

[14] = Postemergence, 16 g ai/ha, scale 0 to 100
[15] = Postemergence, 31 g ai/ha, scale 0 to 100, 0 no effect, 100 complete control
[16] = Postemergence, 62 g ai/ha, scale 0 to 100, 0 no effect, 100 complete control
[17] = Preemergence, 16 g ai/ha, scale 0 to 100 (0 no effect, 100 complete control)
[18] = Preemergence, 31 g ai/ha, 0 to 100 scale, 0 no effect, 100 complete control
[19] = Preemergence, 62 g ai/ha, scale 0 to 100
[20] = 16 g ai/ha, scale 0 to 100 (0 no effect, 100 complete control)
[21] = 8 g ai/ha, scale 0 to 100 (0 no effect, 100 complete control)
[22] = 31 g ai/ha, scale 0 to 100 (0 no effect, 100 complete control)
[23] = 62 g ai/ha, scale 0 to 100, 0 no effect, 100 complete control

Structure (SMILES): Cc1cc(-c2ccc(Cl)cc2)nn1-c1c(OC(=O)c2cccc(Cl)c2)cnn(C)c1=O [Compound 32]
- Crabgrass, Large plant response rating ([1]; postemergence, 0-100 scale): 60
- Plant response rating, Crabgrass, Large [1, 14]: 85
- Plant response rating, Crabgrass, Large [1, 15]: 95
- Plant response rating, Crabgrass, Large [1, 16]: 98
- Plant response rating, Crabgrass, Large [1, 17]: 85
- Plant response rating, Crabgrass, Large [1, 18]: 100
- Plant response rating, Crabgrass, Large [1, 19]: 100
- Crabgrass, Large plant response rating ([1]; Preemergence, scale 0 to 100): 20
- Plant response rating, Russian Thistle [2, 20]: 0
- Plant response rating, Russian Thistle ([2]; 31 g ai/ha, 0 to 100 scale, 0 no effect, 100 complete control): 0
- Plant response rating, Russian Thistle ([2]; 62 g ai/ha, scale 0 to 100): 0
- Russian Thistle plant response rating ([2]; 8 g ai/ha, scale 0 to 100): 0
- Cocklebur plant response rating ([3]; postemergence, 0-100 scale): 0
- Plant response rating, Cocklebur [3, 14]: 0
- Plant response rating, Cocklebur [3, 15]: 0
- Plant response rating, Cocklebur [3, 16]: 0
- Plant response rating, Cocklebur [3, 17]: 0
- Plant response rating, Cocklebur [3, 18]: 0
- Plant response rating, Cocklebur [3, 19]: 0
- Cocklebur plant response rating ([3]; Preemergence, scale 0 to 100): 0
- Plant response rating, Wheat, Spring [4, 21]: 0
- Plant response rating, Wheat, Spring [4, 20]: 25
- Plant response rating, Wheat, Spring [4, 22]: 60
- Plant response rating, Wheat, Spring [4, 23]: 98
- Plant response rating, Mustard, Wild ([5]; 8 g ai/ha): 0
- Plant response rating, Mustard, Wild ([5]; 16 g ai/ha): 0
- Plant response rating, Mustard, Wild ([5]; 31 g ai/ha): 0
- Plant response rating, Barley, Spring [6, 21]: 0
- Plant response rating, Barley, Spring [6, 20]: 0
- Plant response rating, Barley, Spring [6, 22]: 25
- Plant response rating, Barley, Spring [6, 23]: 75
- Plant response rating, Foxtail, Green [7, 21]: 40
- Plant response rating, Foxtail, Green [7, 20]: 75
- Plant response rating, Foxtail, Green [7, 22]: 100
- Plant response rating, Foxtail, Green [7, 23]: 100
- Plant response rating, Blackgrass [8, 22]: 75
- Plant response rating, Blackgrass [8, 23]: 98
- Plant response rating, Barley, Winter [9, 21]: 0
- Plant response rating, Barley, Winter [9, 20]: 0
- Plant response rating, Barley, Winter [9, 22]: 20
- Plant response rating, Barley, Winter [9, 23]: 65
- Plant response rating, Bromegrass, Downy [10, 21]: 0
- Plant response rating, Bromegrass, Downy [10, 20]: 20
- Plant response rating, Bromegrass, Downy [10, 22]: 20
- Plant response rating, Bromegrass, Downy [10, 23]: 60
- Plant response rating, Pigweed [11, 21]: 0
- Plant response rating, Pigweed [11, 20]: 0
- Plant response rating, Pigweed [11, 22]: 0
- Plant response rating, Pigweed [11, 23]: 0
- Plant response rating, Ryegrass, Italian [12, 21]: 0
- Plant response rating, Ryegrass, Italian [12, 20]: 20
- Plant response rating, Ryegrass, Italian [12, 23]: 75
- Plant response rating, Wheat, Winter [13, 21]: 0
- Plant response rating, Wheat, Winter [13, 20]: 20
- Plant response rating, Wheat, Winter [13, 22]: 35
- Plant response rating, Wheat, Winter [13, 23]: 65
